From patent US4386103A, “Dichloroamino acid derivatives useful as potent germicidal and fungicidal agents” (Merck & Co., Inc., priority 1981, dated 1983)

How the values were obtained:
[1] = system: Salmonella typhimurium; test: Contact germicidal screen, Salmonella typhimurium ATCC No. 13311; assay type: cell-based
Experimental: The organisms used in the contact germicidal screen are all maintained as stock cultures on nutrient agar […] 4° C. They are transferred and biochemically diagnosed monthly. The five organisms used are: The media used are: […] Overnight cultures of the test organisms are grown in tryptose phosphate broth. After 15-16 hours, the cultures are centrifuged at […] for 15 minutes, and the supernatant replaced with fresh warm (37° C.) media. After two hours of incubation, the absorbance of the culture at 650 nm is determined and diluted with nutrient broth to 1×10^7 colony forming units per ml (using a previous determined standard curve: colony forming units/ml vs. absorbance at 650). The diluted cultures are maintained at 4°-8° C. throughout the screen. The compounds are weighed into sterile 100 ml volumetric flasks, and immediately before screening dissolved in one of the following buffers: 0.1 M NaOAc pH 4.6 or 0.1 M NaH2 PO4 pH 7.0. If solubility poses a problem, 10-30% methanol is used to effect solution. Two denaturing agents are also tested: […] Horse Serum restored with 100 ml distilled water and 10% Trition×100. When used, 2.5 ml of the denaturing agent is mixed with 2.5 ml of double strength test solution thirty minutes before the bacterial suspension is added. The screen is initiated when 0.2 ml of the bacterial suspension is added to 5.0 ml of the test solution contained in a sterile 25 ml glass stoppered flask. At intervals of 0.5, 2.5, 5.0, 10.0 and 15.0 minutes, a loopful of the inoculated test solution is subcultured into 5 ml of sterile nutrient broth and mixed with a vortex, the high dilution serving to stop the action of the compound. All of the subculture tubes are incubated at 37° C. and checked for signs of growth by turbidity at 1, 3, 5 and 7 days. The earliest subculture time at which no growth is present is considered the endpoint and is recorded as the sterilization time. An aliquot of 0.2 ml of the diluted culture is transferred to 5 ml of buffer to simulate 0.2 ml in 5 ml of test solution. (a) Purity: A loopful of the inoculated buffer is streaked onto nutrient agar to check colony morphology and lack of contaminants. (b) Viability: A loopful of the inoculated buffer is subcultured to 5 ml of nutrient broth as in the screen and incubated at 37° C. for 24 hours. (c) Dilution of the Test Solution: A loopful of the test solution is transferred to a 5 ml tube of nutrient broth, and a loopful of the inoculated buffer is transferred to the same tube of broth. […] (d) Purity of Organisms in the Test Solution: After the 15 minute subculture, a loopful of the inoculated test solution is streaked onto nutrient agar to insure that contamination has not occurred during the screen. (e) lack of Bactericidal Activity of Buffers and Other Solvents: Before a buffer or other solvent is used as a diluent, it is screened against the five organisms to insure that the buffer or solvent has no antibacterial activity itself.

[2] = system: Microsporum canis; test: Contact fungicidal screen, Microsporum canis; assay type: cell-based; settings: 0.1M NaOAc pH 4.6
Experimental: The organisms used in the Contact Fungicidal Screen are a dermatophyte, trychophyton mentagrophytes, frequently associated with athlete's foot; a yeast, Candida albican, causative agent of thrush and vaginitis; a phycomycete, Rhizopus oryzae, commonly known as black bread mold; an ascomycete, Aspergillus fumagatis, found in chicken droppings and causing lung infections; and another dermatophyte, Microsporum canis, which causes ringworm. These organisms are maintained as stock cultures at 4° C. on agar […] of the following composition: dextrose 2%, Neopeptone (Difco) 1%, agar 2%. Fluid medium of the same nutrient composition (without agar) was used to test the viability of the organisms after exposure to the fungicide. This medium is also known as Sabouraud's medium. Sabouraud's agar plate cultures of Aspergillus fumigatus, Microsporum canis, and a different culture of Trychophyton mentagrophytes are prepared by planting an inoculum at the center of an agar plate and incubating at 25°-30° C. for seven to ten days. The mycelial mats are removed from the surface of the agar and prepared in the same manner as the Rhizopus culture. The compounds are weighed into heat sterilized 100 ml volumetric flasks and immediately before screening dissolved in 0.1 M NaOAc pH 4.6 buffer (test solutions). The Aspergillus, Candida, Microsporum and Rhizopus species are screened in a slightly different manner. Basically, the procedure for the Contact Germicidal Efficiency Screen is utilized. After the test solutions are made up, 5 ml aliquots are pipetted into heat sterilized 25 ml glass stoppered erlenmeyer flasks. The screen is initiated when 0.5 ml of the 5×10^6 cell (spore) per ml suspension is added to the flask containing 5 ml of the test solution. […] The subculture tubes are incubated at 25°-30° C. for ten days with daily observation for mycelial growth. The earliest subculture time at which no growth is present is considered the endpoint and is recorded as the sterilization time. To insure the viability of the culture, a 0.5 ml aliquot of the 5×10^6 cells (spores) per ml suspension is transferred to 5 ml of the pH 4.6 buffer. A loopful of the inoculated buffer is then subcultured to 7 ml of fluid Sabouraud's medium and incubated at 25°-30° C. for ten days. To insure that the dilution of the test solution into the subculture medium does stop the action, a loopful of the test solution and a loopful of the inoculated buffer are transferred into the same subculture tube. This tube is also incubated at 25°-30° C. for ten days.

[3] = 10.0+ PPM, 0.1M NaOAc pH 4.6, screened simultaneously with four other compounds
[4] = 300 PPM with 50% Horse Serum, 0.1M NaOAc pH 4.6
[5] = 300 PPM with 50% Triton X100, 0.1M NaOAc pH 4.6
[6] = 1000 PPM with 50% Horse Serum, 0.1M NaOAc pH 4.6
[7] = 308.0 PPM, Triton X100 (10% solution):pH 4.6 buffer 1:1

## CC(C)(COC(=O)CCCC(=O)O)N(Cl)Cl [(V), 2-dichloramino-2-methylpropyl-hemiglutarate]
[1]; [3]
  Sterilization Time: 2.5 min
[1]; 10.0 PPM, 0.1M NaH2PO4 pH 7.0
  Sterilization Time: 15 min
[1]; 10 PPM, 0.1M NaOAc pH 4.6
  Sterilization Time (summary): 2.5 min
[1]; 10.0 PPM, 0.1M NaOAc pH 4.6
  Sterilization Time: 5.0 min
[1]; 99.1 PPM, 0.1M NaOAc pH 4.6
  Sterilization Time: 0.5 min
[1]; 100 PPM, 0.1M NaOAc pH 4.6
  Sterilization Time (summary): 0.5 min
[1]; 106.7 PPM, 0.1M NaH2PO4 pH 7.0
  Sterilization Time: 15 min
[1]; 291.4 PPM, Triton X100 (10% solution):pH 4.6 buffer 1:1
  Sterilization Time: 0.5 min
[1]; 291.4 PPM, horse serum:pH 4.6 buffer 1:1
  Sterilization Time: 10.0 min
[1]; [4]
  Sterilization Time (summary): 10.0 min
[1]; [5]
  Sterilization Time (summary): 0.5 min
[1]; 911.8 PPM, 0.1M NaOAc pH 4.6
  Sterilization Time: 0.5 min
[1]; [6]
  Sterilization Time (summary): 2.5 min
[1]; 1000 PPM, 0.1M NaOAc pH 4.6
  Sterilization Time (summary): 0.5 min
[1]; 1024.4 PPM, 0.1M NaH2PO4 pH 7.0
  Sterilization Time: 5.0 min
[1]; 1042.0 PPM, horse serum:pH 4.6 buffer 1:1
  Sterilization Time: 2.5 min
[2]; 10 PPM
  Sterilization Time: 15 min
[2]; 100 PPM
  Sterilization Time: 5.0 min
[2]; 1000 PPM
  Sterilization Time: 2.5 min

## CC(C)(COC(=O)CCC(=O)O)N(Cl)Cl [(IV), 2-Dichloroamino-2-methylpropylhemisuccinate]
[1]; 8.6 PPM, 0.1M NaOAc pH 4.6
  Sterilization Time: 5.0 min
[1]; 9.8 PPM, 0.1M NaH2PO4 pH 7.0
  Sterilization Time: 15 min
[1]; [3]
  Sterilization Time: 2.5 min
[1]; 10 PPM, 0.1M NaOAc pH 4.6
  Sterilization Time (summary): 2.5 min
[1]; 100 PPM, 0.1M NaOAc pH 4.6
  Sterilization Time (summary): 0.5 min
[1]; 106.2 PPM, 0.1M NaOAc pH 4.6
  Sterilization Time: 0.5 min
[1]; 149.7 PPM, 0.1M NaH2PO4 pH 7.0
  Sterilization Time: 15.0 min
[1]; [4]
  Sterilization Time (summary): 10.0 min
[1]; [5]
  Sterilization Time (summary): 0.5 min
[1]; [7]
  Sterilization Time: 0.5 min
[1]; 338.7 PPM, horse serum:pH 4.6 buffer 1:1
  Sterilization Time: 10.0 min
[1]; [6]
  Sterilization Time (summary): 2.5 min
[1]; 1000 PPM, 0.1M NaOAc pH 4.6
  Sterilization Time (summary): 0.5 min
[1]; 1008.0 PPM, 0.1M NaOAc pH 4.6
  Sterilization Time: 0.5 min
[1]; 1024.0 PPM, horse serum:pH 4.6 buffer 1:1
  Sterilization Time: 2.5 min
[1]; 1070.3 PPM, 0.1M NaH2PO4 pH 7.0
  Sterilization Time: 0.5 min
[2]; 10 PPM
  Sterilization Time: 15 min
[2]; 100 PPM
  Sterilization Time: 15.0 min
[2]; 1000 PPM
  Sterilization Time: 2.5 min

## CC(C)(CC(=O)O)N(Cl)Cl [(II)]
[1]; 1.8 PPM, 0.1M NaOAc pH 4.6
  Sterilization Time: 5.0 min
[1]; 4.5 PPM, 0.1M NaOAc pH 4.6
  Sterilization Time: 2.5 min
[1]; [3]
  Sterilization Time: 0.5 min
[1]; 10 PPM, 0.1M NaOAc pH 4.6
  Sterilization Time (summary): 0.5 min
[1]; 10.0 PPM, 0.1M NaOAc pH 4.6
  Sterilization Time: 0.5 min
[1]; 12.2 PPM, 0.1M NaOAc pH 4.6
  Sterilization Time: 0.5 min
[1]; 32.1 PPM, 0.1M NaOAc pH 4.6
  Sterilization Time: 0.5 min
[1]; 51.0 PPM, Triton X100 (10% solution):pH 4.6 buffer 1:1
  Sterilization Time: 0.5 min
[1]; 51.0 PPM, horse serum:pH 4.6 buffer 1:1
  Sterilization Time: 15 min
[1]; 71.7 PPM, 0.1M NaOAc pH 4.6
  Sterilization Time: 0.5 min
[1]; 100 PPM, 0.1M NaOAc pH 4.6
  Sterilization Time (summary): 0.5 min
[1]; 104.7 PPM, 0.1M NaOAc pH 4.6
  Sterilization Time: 0.5 min
[1]; 107.8 PPM, 0.1M NaH2PO4 pH 7.0
  Sterilization Time: 2.5 min
[1]; 298.9 PPM, 0.1M NaOAc pH 4.6
  Sterilization Time: 0.5 min
[1]; [4]
  Sterilization Time (summary): 2.5 min
[1]; [5]
  Sterilization Time (summary): 0.5 min
[1]; 300 PPM, pH 4.6 buffer with 10% serum
  Sterilization Time: 0.5 min
[1]; 300 PPM, pH 4.6 buffer with 20% serum
  Sterilization Time: 0.5 min
[1]; 300 PPM, pH 4.6 buffer with 35% serum
  Sterilization Time: 2.5 min
[1]; 304.6 PPM, horse serum:pH 4.6 buffer 1:1
  Sterilization Time: 2.5 min
[1]; 304.8 PPM, Triton X100 (10% solution):pH 4.6 buffer 1:1
  Sterilization Time: 0.5 min
[1]; 316.6 PPM, 0.1M NaH2PO4 pH 7.0
  Sterilization Time: 2.5 min
[1]; 606.9 PPM, pH 4.6 buffer with 33% serum
  Sterilization Time: 0.5 min
[1]; 899.25 PPM, pH 4.6 buffer with 25% serum
  Sterilization Time: 0.5 min
[1]; [6]
  Sterilization Time (summary): 0.5 min
[1]; 1000 PPM, 0.1M NaOAc pH 4.6
  Sterilization Time (summary): 0.5 min
[1]; 1001.2 PPM, horse serum:pH 4.6 buffer 1:1
  Sterilization Time: 0.5 min
[1]; 1014.8 PPM, 0.1M NaOAc pH 4.6
  Sterilization Time: 0.5 min
[1]; 1016.0 PPM, 0.1M NaH2PO4 pH 7.0
  Sterilization Time: 0.5 min
[2]; 10 PPM
  Sterilization Time: 15 min
[2]; 100 PPM
  Sterilization Time: 10.0 min
[2]; 1000 PPM
  Sterilization Time: 2.5 min

## CC(C)(CCC(=O)O)N(Cl)Cl [(III), 4-Dichloroamino-4-methylvaleric acid]
[1]; 9.6 PPM, 0.1M NaOAc pH 4.6
  Sterilization Time: 2.5 min
[1]; 9.7 PPM, 0.1M NaH2PO4 pH 7.0
  Sterilization Time: 15 min
[1]; [3]
  Sterilization Time: 2.5 min
[1]; 10 PPM, 0.1M NaOAc pH 4.6
  Sterilization Time (summary): 2.5 min
[1]; 100 PPM, 0.1M NaOAc pH 4.6
  Sterilization Time (summary): 0.5 min
[1]; 102.2 PPM, 0.1M NaOAc pH 4.6
  Sterilization Time: 0.5 min
[1]; 103.5 PPM, 0.1M NaH2PO4 pH 7.0
  Sterilization Time: 5.0 min
[1]; [4]
  Sterilization Time (summary): 2.5 min
[1]; [5]
  Sterilization Time (summary): 0.5 min
[1]; [7]
  Sterilization Time: 0.5 min
[1]; 308.0 PPM, horse serum:pH 4.6 buffer 1:1
  Sterilization Time: 2.5 min
[1]; [6]
  Sterilization Time (summary): 0.5 min
[1]; 1000 PPM, 0.1M NaOAc pH 4.6
  Sterilization Time (summary): 0.5 min
[1]; 1000.0 PPM, horse serum:pH 4.6 buffer 1:1
  Sterilization Time: 0.5 min
[1]; 1007.7 PPM, 0.1M NaOAc pH 4.6
  Sterilization Time: 0.5 min
[1]; 1012.3 PPM, 0.1M NaH2PO4 pH 7.0
  Sterilization Time: 0.5 min
[2]; 10 PPM
  Sterilization Time: 15 min
[2]; 100 PPM
  Sterilization Time: 5.0 min
[2]; 1000 PPM
  Sterilization Time: 0.5 min
